From patent publication US10793547B2, “Modulator of the cystic fibrosis transmembrane conductance regulator, pharmaceutical compositions, methods of treatment, and process for making the modulator” (Vertex Pharmaceuticals Incorporated, priority 2016, dated 2020) come the findings set out here.

Data set [1] has as its system Rat hepatocytes. As to the kind of experiment: Hepatocyte clearance, rat hepatocytes. Type of data set: in vitro ADME. The note with it: percent unchanged.
Data set [2] deals with T1, human PXR (Homo sapiens, UniProt O75469).
T1 construct: host or cells: DPX-2 cell line (derived from HepG2)
T1 sequence (O75469 1-434): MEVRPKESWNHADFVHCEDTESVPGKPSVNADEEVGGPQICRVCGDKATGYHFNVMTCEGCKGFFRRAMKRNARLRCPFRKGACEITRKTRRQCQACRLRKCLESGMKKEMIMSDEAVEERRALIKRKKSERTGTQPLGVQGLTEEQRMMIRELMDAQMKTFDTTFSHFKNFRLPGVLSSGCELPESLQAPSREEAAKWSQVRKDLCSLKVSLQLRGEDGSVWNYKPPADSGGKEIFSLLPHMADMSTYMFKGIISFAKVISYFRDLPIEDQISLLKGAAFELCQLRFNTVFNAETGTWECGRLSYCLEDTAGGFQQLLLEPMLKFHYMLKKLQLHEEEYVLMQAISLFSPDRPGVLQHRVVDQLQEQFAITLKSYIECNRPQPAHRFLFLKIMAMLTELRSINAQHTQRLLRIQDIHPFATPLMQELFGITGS
As to the kind of experiment: PXR assay: PXR mediated CYP3A4 induction in DPX-2 cell line. Type of data set: cell-based. The note with it: DPX-2 cells. In a few lines: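 HepG2-derived DPX-2 cells stably carrying human PXR and a CYP3A4 promoter/enhancer–luciferase reporter; 11 doses from 0.1 to 60 μM for 48 h, rifampicin as positive control. Viability read by fluorescence, then luciferase luminescence; max fold induction over vehicle and EC50 reported.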

Data set [3] addresses T2, F508del-CFTR (Homo sapiens, UniProt P13569, DEL508-508).
T2 construct: expressed in transfected cells
Briefly: Membrane potential optical (FLIPR) assay for F508del-CFTR modulators in NIH 3T3 cells. It counts as cell-based. To be noted: NIH 3T3 cells expressing F508del; assay A1; read-out: CFTRdF508 Cor 3T3 FLIPR 384 CFTRdF508 MP 3T3 770 EC50. In a few lines: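 NIH3T3 mouse fibroblasts stably expressing F508del, seeded on matrigel and cultured 18-24 h at 37 °C; for correction, cells were cultured with or without compound for 18-24 h. Cells were loaded with voltage-sensing dye, then compound was added in one step with a chloride gradient (chloride replaced by gluconate). Membrane potential was read by fluorescence.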

The nature of data set [4]: MDCK-Wild Type permeability, 96 well + 0.1% BSA. Type of data set: in vitro ADME. The note with it: dog, MDCK, A-B direction, read-out: MDCK-Wild Type-Permeability 96 well + 0.1% BSA Papp compound (A-B).
Data set [5] can be described thus: Rat IV and PO PK studies. Type of data set: in vivo, male Sprague-Dawley rats. The note with it: for RAT PLASMA-RAW IV-bolus CL_drg: nominal 3.0 mg/kg; for RAT PLASMA-RAW PO % F_drg / AUC(0-inf): nominal 3 mg/kg, PO; for AUC(0-inf): male, Sprague-Dawley, plasma, read-out: RAT PLASMA-RAW PO AUC (0-inf)_drg. As for the experimental part: C. Experimental Protocol for Rat IV and PO PK Studies
The tested compound was administered to male Sprague-Dawley rats as a single nominal intravenous dose of 3.0 mg/kg as a solution in 10% NMP, 10% solution, 15% EtOH, 35% PEG400 and 30% D5W. The tested compound was also administered to male Sprague-Dawley rats at single nominal oral dose of 3 mg/kg as a solution in 5% NMP, 30% PEG400, 10% TPGS, 5% PVP-K30 at 5 mL/kg dose volume. Analyses of plasma and dose preparations were performed using LC/MS/MS.
Plasma concentration-time profiles of the tested compound in Sprague-Dawley rats at scheduled (nominal) sampling times were analyzed by noncompartmental pharmacokinetic methods using PK function within Watson LIMS software, Version 7.4.2 (Thermo Scientific Inc, Waltham, Mass.). AUC values were calculated using the linear trapezoidal rule.

Structures are written as SMILES. pEC50: −log10 of the molar value.

As a reminder, the pEC50 is −log10 of the EC50, conventionally taken in molar units. Broadly, the Papp A→B is how fast a substance crosses the layer from the apical side. The term AUC(0-inf) denotes total exposure, with the tail of the curve extrapolated.

T2 sequence (P13569 with tags, fused parts or gaps DEL508-508): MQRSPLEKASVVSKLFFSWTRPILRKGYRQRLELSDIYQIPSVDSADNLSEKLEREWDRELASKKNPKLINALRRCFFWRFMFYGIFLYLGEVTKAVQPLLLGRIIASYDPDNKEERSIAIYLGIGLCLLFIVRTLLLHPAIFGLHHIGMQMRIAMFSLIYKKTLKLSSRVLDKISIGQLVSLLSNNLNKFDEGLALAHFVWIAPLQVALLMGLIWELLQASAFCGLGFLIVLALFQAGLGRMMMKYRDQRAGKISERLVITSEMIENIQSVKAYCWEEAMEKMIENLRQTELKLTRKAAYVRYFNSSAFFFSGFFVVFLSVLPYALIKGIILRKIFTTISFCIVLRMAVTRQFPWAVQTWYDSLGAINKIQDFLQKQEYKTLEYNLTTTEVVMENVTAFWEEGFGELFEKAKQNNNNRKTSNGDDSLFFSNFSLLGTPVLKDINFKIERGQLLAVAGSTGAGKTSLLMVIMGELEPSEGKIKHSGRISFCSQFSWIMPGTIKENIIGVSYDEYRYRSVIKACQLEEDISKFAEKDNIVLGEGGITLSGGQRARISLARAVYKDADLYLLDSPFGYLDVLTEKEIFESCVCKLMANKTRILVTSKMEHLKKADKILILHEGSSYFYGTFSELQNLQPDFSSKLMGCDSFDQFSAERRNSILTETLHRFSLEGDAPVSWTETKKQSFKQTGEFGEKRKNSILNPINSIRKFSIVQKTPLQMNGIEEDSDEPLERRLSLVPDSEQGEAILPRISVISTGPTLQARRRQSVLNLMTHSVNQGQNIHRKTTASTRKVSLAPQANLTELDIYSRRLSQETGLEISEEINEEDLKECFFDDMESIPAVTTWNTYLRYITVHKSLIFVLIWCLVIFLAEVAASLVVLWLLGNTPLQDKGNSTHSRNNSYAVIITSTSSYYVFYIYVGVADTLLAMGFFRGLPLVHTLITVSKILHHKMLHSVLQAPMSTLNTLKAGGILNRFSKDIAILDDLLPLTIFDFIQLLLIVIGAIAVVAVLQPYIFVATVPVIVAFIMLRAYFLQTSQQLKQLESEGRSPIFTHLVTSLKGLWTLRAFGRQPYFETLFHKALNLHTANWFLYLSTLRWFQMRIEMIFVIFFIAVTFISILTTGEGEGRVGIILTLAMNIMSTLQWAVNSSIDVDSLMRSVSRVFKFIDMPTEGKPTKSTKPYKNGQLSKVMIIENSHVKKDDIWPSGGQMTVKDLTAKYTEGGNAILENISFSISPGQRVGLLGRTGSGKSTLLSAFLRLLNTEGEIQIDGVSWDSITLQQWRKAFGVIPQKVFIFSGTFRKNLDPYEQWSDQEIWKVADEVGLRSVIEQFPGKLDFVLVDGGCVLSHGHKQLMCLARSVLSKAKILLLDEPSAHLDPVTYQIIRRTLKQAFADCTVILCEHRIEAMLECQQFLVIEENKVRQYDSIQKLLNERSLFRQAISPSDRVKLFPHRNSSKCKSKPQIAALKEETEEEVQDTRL

For the compound `Cc1c(S(=O)(=O)NC(=O)c2ccc(-n3ccc(OCCC4(C(F)(F)F)CC4)n3)nc2N2C[C@@H](C)CC2(C)C)cnn1C` [Compound 14, N-(1,5-dimethylpyrazol-4-yl)sulfonyl-6-[3-[2-[1-(trifluoromethyl)cyclopropyl]ethoxy]pyrazol-1-yl]-2-[(4S)-2,2,4-trimethylpyrrolidin-1-yl]pyridine-3-carboxamide], the “Hepatocyte clearance-Rat Rat hepatocytes CL pct_unchanged” value in data set [1] was found to be 50%. In addition, the “CYP3A4 Induction-PXR human PXR internal Max % Activity” value in data set [2] was 2%. The pEC50 in data set [3] was 6.55. The Papp A→B in data set [4] is 2.8 ×10⁻⁶ cm/s. Moreover, in data set [5], the “RAT PLASMA-RAW IV-bolus CL_drg” value came to 3.9 mL/min/kg, the “RAT PLASMA-RAW PO % F_drg” value amounted to 61% and the AUC(0-inf) stood at 10500 ng·h/mL.

`Cc1nn(C)cc1S(=O)(=O)NC(=O)c1ccc(-n2ccc(OCCC3(C(F)(F)F)CC3)n2)nc1N1C[C@@H](C)CC1(C)C` [Compound 15, N-(1,3-dimethylpyrazol-4-yl)sulfonyl-6-[3-[2-[1-(trifluoromethyl)cyclopropyl]ethoxy]pyrazol-1-yl]-2-[(4S)-2,2,4-trimethylpyrrolidin-1-yl]pyridine-3-carboxamide]: the “Hepatocyte clearance-Rat Rat hepatocytes CL pct_unchanged” value in data set [1] is on record as 97%. Also, the “CYP3A4 Induction-PXR human PXR internal Max % Activity” value in data set [2] came to 3%. In addition, the pEC50 in data set [3] was 6.89. Further, in data set [4], the Papp A→B is 2.7 ×10⁻⁶ cm/s. In data set [5], the “RAT PLASMA-RAW IV-bolus CL_drg” value came out at 2.5 mL/min/kg, the “RAT PLASMA-RAW PO % F_drg” value came out at 66% and the area under the curve AUC(0-inf) turned out to be 16300 ng·h/mL.

Turning to `Cc1nn(C)cc1S(=O)(=O)NC(=O)c1ccc(-n2ccc(OCC3C(C)(C)C3(C)C)n2)nc1N1C[C@@H](C)CC1(C)C` [Compound 20, N-(1,3-dimethylpyrazol-4-yl)sulfonyl-6-[3-[(2,2,3,3-tetramethylcyclopropyl)methoxy]pyrazol-1-yl]-2-[(4S)-2,2,4-trimethylpyrrolidin-1-yl]pyridine-3-carboxamide], the “Hepatocyte clearance-Rat Rat hepatocytes CL pct_unchanged” value in data set [1] was found to be 13%. Moreover, the “CYP3A4 Induction-PXR human PXR internal Max % Activity” value in data set [2] was 4%. In addition, in data set [3], the pEC50 was 6.77. The Papp A→B in data set [4] was determined as 1.4 ×10⁻⁶ cm/s. For the same compound, in data set [5], the “RAT PLASMA-RAW IV-bolus CL_drg” value is 4.9 mL/min/kg, the “RAT PLASMA-RAW PO % F_drg” value is recorded as 21% and the AUC(0-inf) was 3000 ng·h/mL.

As for `Cc1c(S(=O)(=O)NC(=O)c2ccc(-n3ccc(OCC4C(C)(C)C4(C)C)n3)nc2N2C[C@@H](C)CC2(C)C)cnn1C` [Compound 21, N-(1,5-dimethylpyrazol-4-yl)sulfonyl-6-[3-[(2,2,3,3-tetramethylcyclopropyl)methoxy]pyrazol-1-yl]-2-[(4S)-2,2,4-trimethylpyrrolidin-1-yl]pyridine-3-carboxamide], the “Hepatocyte clearance-Rat Rat hepatocytes CL pct_unchanged” value in data set [1] stood at 0%. Further, the “CYP3A4 Induction-PXR human PXR internal Max % Activity” value in data set [2] is given as 1%. Moreover, in data set [3], the pEC50 is 6.28. Also, the apparent permeability from apical to basolateral (Papp A→B) in data set [4] worked out at 3 ×10⁻⁶ cm/s. In addition, in data set [5], the “RAT PLASMA-RAW IV-bolus CL_drg” value is on record as 6.7 mL/min/kg, the “RAT PLASMA-RAW PO % F_drg” value was 47% and the area under the curve AUC(0-inf) was 3900 ng·h/mL.

With `Cc1nn(C)cc1S(=O)(=O)NC(=O)c1ccc(-n2ccc(OCC3C4(CC4)C34CC4)n2)nc1N1C[C@@H](C)CC1(C)C` [Compound 28, (S)—N-((1,3-Dimethyl-1H-pyrazol-4-yl)sulfonyl)-6-(3-(dispiro[2.0.2.1]heptan-7-ylmethoxy)-1H-pyrazol-1-yl)-2-(2,2,4-trimethylpyrrolidin-1-yl)nicotinamide], the “Hepatocyte clearance-Rat Rat hepatocytes CL pct_unchanged” value in data set [1] is listed as 41%. Further, the “CYP3A4 Induction-PXR human PXR internal Max % Activity” value in data set [2] worked out at 4%. The negative-log EC50 (pEC50) in data set [3] was 7.05. In addition, the Papp A→B in data set [4] was 2.2 ×10⁻⁶ cm/s. Moreover, in data set [5], the “RAT PLASMA-RAW IV-bolus CL_drg” value is 1.8 mL/min/kg, the “RAT PLASMA-RAW PO % F_drg” value came out at 80% and the AUC(0-inf) was determined as 7100 ng·h/mL.
